From patent publication US9567322B2, “Substituted tetrahydropyrans and method of use” (AbbVie S.á.r.l., priority 2014, dated 2017)

Target: T1, F508delCFTR (Homo sapiens, UniProt P13569, DEL508-508)
T1 construct: expressed in transfected cells; host or cells: CFBE41o- (CFBE41o-F508delCFTR-HRP), doxycycline-inducible
Assay: Cell Surface Expression-Horse Radish Peroxidase (CSE-HRP) assay
Format: cell-based
Conditions: CFBE41o-F508delCFTR-HRP cells; for EC50: cell surface expression, luminescence readout, 18-24 hours at 33° C., highest concentration tested 20 μM, 8-point curve; for Maximum % activity: maximum at any tested concentration, normalized to on-plate positive control (3 μM) and DMSO
Text: Cell Surface Expression-Horse Radish Peroxidase (CSE-HRP) Assay:
A cellular assay for measuring the F508delCFTR cell surface expression after correction with test compounds was developed in human lung derived epithelial cell line (CFBE41o-) (Veit G et al, (2012) Mol Biol Cell. 23(21): 4188-4202). This was achieved by expressing the F508delCFTR mutation along with a horseradish peroxidase (HRP) in the fourth exofacial loop and then measuring the HRP activity using luminescence readout from these cells, CFBE41o-F508delCFTR-HRP, that were incubated overnight with the test corrector compounds. Briefly, for this primary assay, the CFBE41o-F508delCFTR-HRP cells were plated in 384-well plates (Greiner Bio-one; Cat 781080) at 4,000 cells/well along with 0.5 μg/mL doxycycline to induce the F508delCFTR-HRP expression and further incubated at 37° C., 5% CO2 for 72 hours. The test compounds were then added at the required concentrations and further incubated for 18-24 hours at 33° C. The highest concentration tested was 20 μM with an 8-point concentration response curve using a 3-fold dilution. Three replicate plates were run to determine one EC50. All plates contained negative controls (dimethyl sulfoxide, DMSO) and positive controls (3 μM of 3-[(2R,4R)-4-({[1-(2,2-difluoro-1,3-benzodioxol-5-yl)cyclopropyl]carbonyl}amino)-7-methoxy-3,4-dihydro-2H-chromen-2-yl]benzoic acid) as well as on-plate concentration response of the positive control. Post incubation, the plates were washed 5× times with Dulbecco's phosphate buffered saline (DPBS), followed by the addition of the HRP substrate, luminol (50 μL), and measuring the HRP activity using luminescence readout on EnVision® Multilabel Plate Reader (Perkin Elmer; product number 2104-0010). The raw counts from the experiment are analyzed using Accelrys® Assay Explorer v3.3.
Z′ greater than 0.5 was used as passing quality control criteria for the plates.
The Z′ is defined as: 1−[3*SDPositive Control+3*SDNegative Control/Absolute(MeanPositive Control−MeanNegative Control)],
wherein “SD” is standard deviation.
The % activity measured at each of the 8 test concentrations of the test compound was normalized to the on-plate positive control using the following formula: % activity=[(test compound response−DMSO response)/(positive control response−DMSO response)]*100
The maximum % activity achieved for the test compound at any tested concentration is presented in Table 1 along with the EC50 calculated using the following general sigmoidal curve with variable Hill slope equation (described as Model 42 in the Accelrys® Assay Explorer v3.3 software): y=(a−d)/(1+(x/c)^b)+d General sigmoidal curve with concentration, response, top, bottom, EC50 and Hill slope.
This model describes a sigmoidal curve with an adjustable baseline, a. The equation can be used to fit curves where response is either increasing or decreasing with respect to the independent variable, “x”.
“x” is a concentration of drug under test.
“a” is the maximum response, and “d” is the minimum response
“c” is the inflection point (EC50) for the curve. That is, “y” is halfway between the lower and upper asymptotes when x=c.
“b” is the slope-factor or Hill coefficient. The sign of b is positive when the response increases with increasing dose and is negative when the response decreases with increasing dose (inhibition).

T1 sequence (P13569 with tags, fused parts or gaps DEL508-508): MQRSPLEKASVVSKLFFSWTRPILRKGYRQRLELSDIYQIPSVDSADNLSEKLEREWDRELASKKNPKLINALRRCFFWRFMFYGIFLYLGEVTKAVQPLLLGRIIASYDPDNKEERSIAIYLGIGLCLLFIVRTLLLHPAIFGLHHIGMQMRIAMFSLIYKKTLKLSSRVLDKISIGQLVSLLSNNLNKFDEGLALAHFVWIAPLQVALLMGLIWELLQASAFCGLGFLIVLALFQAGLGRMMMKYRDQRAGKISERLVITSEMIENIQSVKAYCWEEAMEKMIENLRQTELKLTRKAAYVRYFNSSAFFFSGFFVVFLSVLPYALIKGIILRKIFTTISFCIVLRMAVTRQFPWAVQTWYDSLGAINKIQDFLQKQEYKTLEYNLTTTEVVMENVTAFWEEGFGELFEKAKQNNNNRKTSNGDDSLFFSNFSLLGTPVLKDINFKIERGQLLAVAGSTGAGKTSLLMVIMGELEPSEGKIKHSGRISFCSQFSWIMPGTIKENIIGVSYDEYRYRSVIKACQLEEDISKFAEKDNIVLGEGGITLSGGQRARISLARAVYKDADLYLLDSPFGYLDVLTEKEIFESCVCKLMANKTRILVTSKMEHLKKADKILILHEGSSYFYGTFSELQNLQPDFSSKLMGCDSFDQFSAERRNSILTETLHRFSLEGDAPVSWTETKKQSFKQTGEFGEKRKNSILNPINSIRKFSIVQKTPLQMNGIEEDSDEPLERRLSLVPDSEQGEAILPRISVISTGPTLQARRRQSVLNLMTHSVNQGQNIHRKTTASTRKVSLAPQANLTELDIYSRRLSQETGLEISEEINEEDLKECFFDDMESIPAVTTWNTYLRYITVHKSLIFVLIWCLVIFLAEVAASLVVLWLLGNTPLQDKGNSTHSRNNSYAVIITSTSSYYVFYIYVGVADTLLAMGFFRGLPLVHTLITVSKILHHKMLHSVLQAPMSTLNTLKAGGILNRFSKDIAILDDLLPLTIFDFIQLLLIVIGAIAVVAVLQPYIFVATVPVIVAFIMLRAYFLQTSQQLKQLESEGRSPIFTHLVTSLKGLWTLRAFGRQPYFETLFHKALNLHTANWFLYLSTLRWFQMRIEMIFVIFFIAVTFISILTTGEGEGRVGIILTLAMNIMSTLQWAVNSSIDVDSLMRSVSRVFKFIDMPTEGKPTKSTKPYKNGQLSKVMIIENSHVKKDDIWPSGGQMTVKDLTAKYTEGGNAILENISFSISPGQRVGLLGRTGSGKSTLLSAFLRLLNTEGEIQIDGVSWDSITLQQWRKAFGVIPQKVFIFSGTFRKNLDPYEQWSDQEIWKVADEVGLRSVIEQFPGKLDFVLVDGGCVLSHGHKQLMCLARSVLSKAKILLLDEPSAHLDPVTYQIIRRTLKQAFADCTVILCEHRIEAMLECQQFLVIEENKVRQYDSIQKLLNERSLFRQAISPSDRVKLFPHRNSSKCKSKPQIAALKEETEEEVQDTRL

EC50 [nM]	Maximum % activity [%]	SMILES
1040	108	CCOC(=O)c1cccc([C@H]2C[C@@H](NC(=O)C3(c4ccc5c(c4)OC(F)(F)O5)CC3)C[C@@H](c3cccc(OC)c3)O2)c1 (racemic) [Example 68, ethyl rac-3-[(2R,4R,6S)-4-({[1-(2,2-difluoro-1,3-benzodioxol-5-yl)cyclopropyl]carbonyl}amino)-6-(3-methoxyphenyl)tetrahydro-2H-pyran-2-yl]benzoate]
420	85	COc1cccc([C@@H]2C[C@H](NC(=O)C3(c4ccc5c(c4)OC(F)(F)O5)CC3)C[C@H](c3cccc(C(=O)O)c3)O2)c1 (racemic) [Example 69, rac-3-[(2R,4R,6S)-4-({[1-(2,2-difluoro-1,3-benzodioxol-5-yl)cyclopropyl]carbonyl}amino)-6-(3-methoxyphenyl)tetrahydro-2H-pyran-2-yl]benzoic acid]
910	92	Cc1ccc(C(=O)O)cc1[C@H]1C[C@@H](NC(=O)C2(c3ccc4c(c3)OC(F)(F)O4)CC2)C[C@@H](c2ccccc2)O1 (racemic) [Example 70, rac-3-[(2R,4S,6S)-4-({[1-(2,2-difluoro-1,3-benzodioxol-5-yl)cyclopropyl]carbonyl}amino)-6-phenyltetrahydro-2H-pyran-2-yl]-4-methylbenzoic acid]
1310	92	COC(=O)c1ccc(C)c([C@H]2C[C@@H](NC(=O)C3(c4ccc5c(c4)OC(F)(F)O5)CC3)C[C@@H](c3ccccc3)O2)c1 (racemic) [Example 71, methyl rac-3-[(2R,4S,6S)-4-({[1-(2,2-difluoro-1,3-benzodioxol-5-yl)cyclopropyl]carbonyl}amino)-6-phenyltetrahydro-2H-pyran-2-yl]-4-methylbenzoate]
1160	106	CCOC(=O)c1cc(C)cc([C@H]2C[C@@H](NC(=O)C3(c4ccc5c(c4)OC(F)(F)O5)CC3)C[C@@H](c3ccccc3)O2)c1 (racemic) [Example 72, ethyl rac-3-[(2R,4S,6S)-4-({[1-(2,2-difluoro-1,3-benzodioxol-5-yl)cyclopropyl]carbonyl}amino)-6-phenyltetrahydro-2H-pyran-2-yl]-5-methylbenzoate]
2100	60	COC(=O)c1ccc([C@@H]2C[C@H](NC(=O)C3(c4ccc5c(c4)OC(F)(F)O5)CC3)CCO2)c(C)c1 (single isomer, unassigned) [Example 40]
410	104	COC(=O)c1ccc([C@H]2C[C@@H](NC(=O)C3(c4ccc5c(c4)OC(F)(F)O5)CC3)CCO2)c(C)c1 (single isomer, unassigned) [Example 41]
1710	71	O=C(O)c1ccc([C@@H]2C[C@H](NC(=O)C3(c4ccc5c(c4)OC(F)(F)O5)CC3)C[C@H](c3ccccc3)O2)cc1 (single isomer, unassigned) [Example 54]
7370	63	C[C@H]1C[C@@H](NC(=O)C2(c3ccc4c(c3)OC(F)(F)O4)CC2)C[C@@H](c2ccc(C(=O)O)cc2)O1 (single isomer, unassigned) [Example 58]
980	90	C[C@@H]1C[C@H](NC(=O)C2(c3ccc4c(c3)OC(F)(F)O4)CC2)C[C@H](c2ccc(C(=O)O)cc2)O1 (single isomer, unassigned) [Example 59]
320	79	COc1ccc([C@@H]2C[C@H](NC(=O)C3(c4ccc5c(c4)OC(F)(F)O5)CC3)C[C@H](c3ccc(C(=O)O)cc3)O2)cc1 (single isomer, unassigned) [Example 66]
2410	54	COc1ccc([C@H]2C[C@@H](NC(=O)C3(c4ccc5c(c4)OC(F)(F)O5)CC3)C[C@@H](c3ccc(C(=O)O)cc3)O2)cc1 (single isomer, unassigned) [Example 67]
240	89	COc1cccc([C@@H]2C[C@H](NC(=O)C3(c4ccc5c(c4)OC(F)(F)O5)CC3)C[C@H](c3cccc(C(=O)O)c3)O2)c1 (single isomer, unassigned) [Example 74]
220	105	Cc1cc(C(=O)O)cc([C@H]2C[C@@H](NC(=O)C3(c4ccc5c(c4)OC(F)(F)O5)CC3)C[C@@H](c3ccccc3)O2)c1 (single isomer, unassigned) [Example 75]
1590	38	Cc1cc(C(=O)O)cc([C@@H]2C[C@H](NC(=O)C3(c4ccc5c(c4)OC(F)(F)O5)CC3)C[C@H](c3ccccc3)O2)c1 (single isomer, unassigned) [Example 76]
470	115	Cc1cc(C(=O)O)ccc1[C@H]1C[C@@H](NC(=O)C2(c3ccc4c(c3)OC(F)(F)O4)CC2)CCO1 (stereo in doubt) [Example 37, rac-4-[(2R,4S)-4-({[1-(2,2-difluoro-1,3-benzodioxol-5-yl)cyclopropyl]carbonyl}amino)tetrahydro-2H-pyran-2-yl]-3-methylbenzoic acid]
6870	36	Cc1cc(C(=O)O)ccc1[C@@H]1C[C@H](NC(=O)C2(c3ccc4c(c3)OC(F)(F)O4)CC2)CCO1 (stereo in doubt) [Example 42, rel-4-[(2S,4R)-4-({[1-(2,2-difluoro-1,3-benzodioxol-5-yl)cyclopropyl]carbonyl}amino)tetrahydro-2H-pyran-2-yl]-3-methylbenzoic acid]
320	119	Cc1cc(C(=O)O)ccc1[C@H]1C[C@@H](NC(=O)C2(c3ccc4c(c3)OC(F)(F)O4)CC2)CCO1 (stereo in doubt) [Example 43, rel-4-[(2R,4S)-4-({[1-(2,2-difluoro-1,3-benzodioxol-5-yl)cyclopropyl]carbonyl}amino)tetrahydro-2H-pyran-2-yl]-3-methylbenzoic acid]
6700	75	O=C(N[C@@H]1CCO[C@H](c2ccc3c(c2)OCO3)C1)C1(c2ccc3c(c2)OC(F)(F)O3)CC1 [Example 15, N-[(2S,4R)-2-(1,3-benzodioxol-5-yl)tetrahydro-2H-pyran-4-yl]-1-(2,2-difluoro-1,3-benzodioxol-5-yl)cyclopropanecarboxamide]
2620	44	COC(=O)c1cccc([C@@H]2C[C@H](NC(=O)C3(c4ccc5c(c4)OC(F)(F)O5)CC3)CCO2)c1 [Example 16, methyl 3-[(2S,4R)-4-({[1-(2,2-difluoro-1,3-benzodioxol-5-yl)cyclopropyl]carbonyl}amino)tetrahydro-2H-pyran-2-yl]benzoate]
1110	81	COC(=O)c1cccc([C@H]2C[C@@H](NC(=O)C3(c4ccc5c(c4)OC(F)(F)O5)CC3)CCO2)c1 [Example 17, methyl 3-[(2R,4S)-4-({[1-(2,2-difluoro-1,3-benzodioxol-5-yl)cyclopropyl]carbonyl}amino)tetrahydro-2H-pyran-2-yl]benzoate]
≥ 20000	3	O=C(O)c1cccc([C@@H]2C[C@H](NC(=O)C3(c4ccc5c(c4)OC(F)(F)O5)CC3)CCO2)c1 [Example 18, 3-[(2S,4R)-4-({[1-(2,2-difluoro-1,3-benzodioxol-5-yl)cyclopropyl]carbonyl}amino)tetrahydro-2H-pyran-2-yl]benzoic acid]
